The text below walks through data of patent publication US20030055101A1, “Use of statins to inhibit formation of osteoclasts” (priority 2001, published 2003).

Where a name gives a salt, the structure may show the parent alone.

For experiment [1], the system named is primary murine bone marrow cell cultures. In words: RANKL-induced osteoclastogenesis in bone marrow cell cultures (TRAP staining). The class given is cell-based, mouse. The following applies: for number of TRAP-positive cells formed: added 2 days post RANKL stimulation (5 days after isolation). The protocol:
Bone marrow cells were cultured with 100 ng/mL of M-CSF for 3 days. The cells were further cultured for 5 more days with either atorvastatin, its S,S-enantiomer or osteoprotegerin (OPG) in the presence of RANKL and M-CSF. Cells were then fixed and stained for TRAP. […] The data shown are mean ±SD (n=4 wells/treatment).
Bone marrow cells treated with M-CSF for 3 days were stimulated with RANKL as well as atorvastatin (0.01 nM, […], and 1 μM), its S,S-enantiomer or OPG. In some experiments atorvastatin was added 2 days post RANKL stimulation (5 days after isolation). On Day 8 postisolation, cells were fixed and stained for TRAP. TRAP-positive multinucleated cells were counted and represented. The data shown are mean of ±SD (n=4 wells/treatment).
Bone marrow cells were cultured in the presence of 100 ng/mL of recombinant murine M-CSF for 3 days after isolation. The cells were then stimulated with murine RANKL (100 ng/mL) in the presence of various doses of atorvastatin (0.01 nM, 1 nM, and 1 μM), S,S-enantiomer of atorvastatin, or osteoprotegerin (OPG) and further cultured for 5 more days and stained for TRAP activity (see FIG. 1).
Osteoclastogenesis involves a series of events which include differentiation, proliferation, activation, and fusion to form multinucleated cells that are capable of resorbing bone. To examine the stage at which atorvastatin inhibits osteoclastogenesis, atorvastatin was added at various times to mouse bone marrow cells in the presence of M-CSF and RANKL.
Briefly, after removing the femur aseptically, the adherent soft tissue was separated from the bone. Using a syringe and a needle, the marrow was flushed using alpha minimum essential medium (α-MEM). Osteoclasts were obtained by culturing bone marrow cells (0.15×10^6 cells/well) in α-MEM containing 10% fetal bovine serum (FBS), 100 IU penicillin, 100 μg/mL of streptomycin and 100 ng/mL of recombinant murine M-CSF for 3 days in 48-well plates. The osteoclasts thus obtained were further cultured with RANKL±atorvastatin, S,S-enantiomer of atorvastatin or osteoprotegerin (OPG), for 5 days. […] In some experiments, the compounds were added on Day 5 postisolation.
After washing twice with distilled water that was prewarmed to 37° C., the cells were incubated in acetate buffer containing naphthol AS-B1 and Fast Garnet GBC solution for 45 minutes at 37° C. TRAP-positive cells are typically brown in color when viewed under the microscope. The total number of TRAP-positive cells with 3 or more nuclei in each well were counted. TRAP activity is a phenotypic marker of mature osteoclasts.

Another experiment relates to RAW 264.7 cells. As to the kind of experiment: RANKL-induced osteoclastogenesis in RAW 264.7 cells (TRAP staining). In kind it is cell-based. As to the method: Raw cells (2000/well) were stimulated with RANKL (50 ng/mL)±atorvastatin and S,S-enantiomer of atorvastatin for 5 days and TRAP staining was performed at the end of Day 5 and the data is expressed as % inhibition of number of TRAP-positive cells compared to control.
RAW cells were plated at a density of 2000 cells/well in a 48-well plate and cultured overnight in alpha-MEM medium containing antibiotics. Cells were treated with either RANKL (50 ng/mL)±atorvastatin or the S,S-enantiomer of atorvastatin (10, 1, and 0.01 μM) for 5 days and stained for TRAP enzyme. Purple stained cells with three or more nuclei were counted under the microscope and represented as % inhibition of osteoclastogenesis compared to control cells.
RAW cells were cultured in α-MEM containing 10% FBS, 100 IU penicillin, 100 μg/mL of streptomycin. Cells were plated at a density of 2000 cells/well in a 48-well plate. After overnight incubation, the cells were stimulated with RANKL (50 ng/mL)±atorvastatin, S,S-enantiomer of atorvastatin or OPG for 5 days and stained for TRAP at the end of Day 5.
After initial wash with 1×PBS, the cells were fixed for 30 seconds using acetone based fixing solution containing acetone, citric acid and 37% formaldehyde. After washing twice with distilled water that was prewarmed to 37° C., the cells were incubated in acetate buffer containing naphthol AS-B1 and Fast Garnet GBC solution for 45 minutes at 37° C. TRAP-positive cells are typically brown in color when viewed under the microscope. The total number of TRAP-positive cells with 3 or more nuclei in each well were counted. TRAP activity is a phenotypic marker of mature osteoclasts.

In experiment [2] the test system is osteoclasts in ovariectomized rats. In words: Osteoclast numbers in ovariectomized rats (tibia histomorphometry). In kind it is in vivo, rat. The following applies: for osteoclast numbers: 5 weeks. As to the method:
Rats were ovariectomized according to the standard protocol and were administered orally with various doses of atorvastatin (2.5, 5, and 10 mg/kg body weight) for 5 weeks. Tibiae were analyzed for osteoclast number by histomorphometry. Ethinyl estradiol (EE) (0.4 mg/kg), a known bone protective agent, was used as a positive control.
Ovariectomy-induced bone loss in rats is an established model of osteoporosis, wherein estrogen insufficiency leads to increased osteoclastogenesis, possibly due to enhanced cytokine production. To test whether statins decrease bone resorption in vivo, ovariectomized rats were given orally various doses of atorvastatin (2.5, 5, or 10 mg/kg body weight) for 5 weeks. At the end of the study, the animals were sacrificed, and histomorphometric analysis was performed on tibia obtained from the animals.
The rats were ovariectomized according to the standard protocol. Briefly, after anesthesia the rats were cleaned with antiseptic solution. A small incision was made on the back of the animal, and the ovaries were located carefully underneath the fat tissue. After proper clamping, ovaries were removed with a scalpel blade. Also, the fallopian tube with the uterine horn was sealed by electrocautery. Later, the skin incision was closed using wound clips. After recovery from the surgery, animals were randomized into 6 groups of 8 animals each (sham operated, OVX, OVX+ atorvastatin 2.5, 5, 10 mg/kg body weight and OVX+ ethinyl estradiol) and dosed with various concentrations of atorvastatin and vehicle control every day for a period of 5 weeks.
Histomorphometric analysis was performed using decalcified sections of the proximal tibia for cancellous bone and undecalcified sections for cortical bone. Briefly, tibiae were decalcified using 10% ethylene diaminetetraacetic acid (EDTA), followed by […] in ascending concentrations of ethanol and embedded in glycol methacrylate (GMA) resin. The specimens were sectioned at 5 to 10 μm and stained with TRAP and counter stained with methyl green for determination of cellular parameters. Bone histomorphometry was performed using an OsteoMeasure image analysis system connected via a video system to a suitable light microscope.

The conditions of experiment [3]: normal and ovariectomized (OVX) rats; cited from earlier work.
Experiment [4] relates to osteoblast-osteoclast cocultures. The following applies: 10 μM; cited from earlier work.

In general, IC50 refers to the concentration that inhibits the measured activity by half. As usually defined, the inhibition is how much of the control response was suppressed. On to `CC(C)c1c(C(=O)Nc2ccccc2)c(-c2ccccc2)c(-c2ccc(F)cc2)n1CC[C@@H](O)C[C@@H](O)CC(=O)O` [atorvastatin, [R-(R*,R*)]-2-(4-fluorophenyl)-β,δ-dihydroxy-5-(1-methylethyl)-3-phenyl-4-[(phenylamino)carbonyl]-1H-pyrrole-1-heptanoic acid calcium salt (2:1) trihydrate], for which the “number of TRAP-positive, multinucleated cells” value (in experiment [1] (0.01 nM to 1 μM); in the experiment on RAW 264.7 cells (0.01 nM to 1 μM)) was “significantly reduced” each time. The IC50 came out at 0.43 nM in experiment [1] (Mus musculus, primary murine bone marrow cell cultures, read-out: IC50, number of TRAP-positive, multinucleated cells) and 170 nM in the experiment on RAW 264.7 cells (Mus musculus, RAW264.7, RAW cells, read-out: IC50, number of TRAP-positive, multinucleated cells). Moreover, the “number of TRAP-positive cells formed” value in experiment [1] is on record as “able to block”. The “effect when added on Day 5 compared with Day 3 postisolation” value in experiment [1] (time course) was “much more pronounced”. Besides, the inhibition at 0.01 µM in the experiment on RAW 264.7 cells (Mus musculus, RAW264.7, 120 h, 0.01 micromolar, 5 days, RANKL 50 ng/mL, read-out: % inhibition of RANKL-induced multinucleated cell formation) is ~80%. Besides, the osteoclast numbers result in experiment [2] (5 mg/kg orally, ovariectomized rats) was “significantly decreased”; in experiment [2] (10 mg/kg orally, ovariectomized rats), “significantly decreased”. Besides, the “decrease of osteoclast formation compared with ethinyl estradiol” value in experiment [2] (both 5 and 10 mg/kg doses, ethinyl estradiol positive control) is listed as “more effective”. In addition, the “number of osteoclasts formed” value in experiment [2] (daily oral 2.5-10 mg/kg body weight, 5-week period, ovariectomized rats) was “significantly decreased”.
For the molecule `CC[C@H](C)C(=O)O[C@H]1C[C@@H](C)C=C2C=C[C@H](C)[C@H](CC[C@@H]3C[C@@H](O)CC(=O)O3)[C@H]21` [lovastatin], in experiment [3], the “increase in total bone area compared to BMP-2 or b-FGF” value was “greater dose-dependent increase”. Besides, in experiment [4], the “tartrate-resistant acid phosphatase (TRAP) activity” value was “inhibits”.
On to “(3S,5S)-7-[2-(4-fluorophenyl)-5-isopropyl-3-phenyl-4-phenylcarbamoyl-pyrrol-1-yl]-3,5-dihydroxy-heptanoic acid calcium salt (2:1) [S,S-enantiomer of atorvastatin]”, for which the “number of TRAP-positive cells formed” value in experiment [1] was “no differences were observed”. Also, the “% inhibition of RANKL-induced multinucleated cell formation, compared with atorvastatin” value in the experiment with RAW 264.7 cells (10, 1, and 0.01 μM, 5 days, RANKL 50 ng/mL) is given as “significantly less % inhibition”.

B1: osteoprotegerin (protein, UniProt O00300 22-401, looked up)
Tumor necrosis factor …: ETFPPKYLHYDEETSHQLLCDKCPPGTYLKQHCTAKWKTVCAPCPDHYYTDSWHTSDECLYCSPVCKELQYVKQECNRTHNRVCECKEGRYLEIEFCLKHRSCPPGFGVVQAGTPERNTVCKRCPDGFFSNETSSKAPCRKHTNCSVFGLLLTQKGNATHDNICSGNSESTQKCGIDVTLCEEAFFRFAVPTKFTPNWLSVLVDNLPGTKVNAESVERIKRQHSSQEQTFQLLKLWKHQNKDQDIVKKIIQDIDLCENSVQRHIGHANLTFEQLRSLMESLPGKKVGAEDIEKTIKACKPSDQILKLLSLWRIKNGDQDTLKGLMHALKHSKTYHFPKTVTQSLKKTIRFLHSFTMYKLYQKLFLEMIGNQVQSVKISCL
notes: soluble decoy receptor for RANKL
Turning to B1, in experiment [1] (50 ng/mL added simultaneously with RANKL), the “number of TRAP-positive multinucleated cells formed by RANKL” value is given as “completely inhibited”.
